Data from US20100203634A1, “Inhibition of stem cell differentiation, enhancement of proliferation and selective induction of apoptosis by Wnt factors” (DeltaCell B.V., priority 2003, published 2010).
“Also recorded” adds a separate entry of the source.

Columns and labels:
[1] = tested on: mesenchyme and epithelium of fetal lung explants; assay: Apoptosis in lung explants by H/E histology (picnotic nuclei); assay type: cell-based, mouse
Protocol: The (fetal) murine lung explant culture was generated according to our standard protocol. Briefly, complete lungs or individually dissected lung lobes were isolated from fetal mice and cultured for one to five days in a hanging drop culture system. The Wnt3a polypeptide was administered to the culture medium in different concentrations, ranging from 0 to 4000 ng/ml. The effect of this treatment was monitored by stereomicroscopy. The lung explant cultures were subsequently fixed for 30 minutes in 10% paraformaldehyde (PFA), 30 minutes in 2% PFA and 30 minutes in 4% PFA. After fixation, the lung explants were dehydrated through an increasing series of 2-isopropanol and subsequently embedded in paraffin. For the histological analysis, 4 μm thick sections were cut and stained with Hematoxilin and Eosin using standard techniques.
In order to determine the concentration range in which the Wnt3a polypeptide is effective, total lung explants were cultured in the presence of Wnt3a in a range of 0 ng/ml, 500 ng/ml, 750 ng/ml, 1000 ng/ml, 2000 ng/ml and 4000 ng/ml (FIG. 2, Panels A-R).
After two days of culture, these lung explants were fixed and embedded in paraffin for immunohistological analysis.
To more exactly determine the concentration of Wnt3a that is effective upon lung development, differentiation and apoptosis, fetal lung explants were cultured for a longer period (four days) in the presence of lower concentrations of Wnt3a, i.e., 0 ng/ml, 4 ng/ml, 20 ng/ml, 100 ng/ml and 500 ng/ml (FIG. 4, Panels A-O).

beta-catenin = assay: Nuclear translocation of beta-catenin, immunohistology of fetal lung explants; assay type: cell-based, mouse
Protocol: FIG. 8: Nuclear translocation of beta-catenin by Wnt3A in fetal lung explants. The translocation of beta-catenin was determined using immunohistological analysis of histological sections from fetal lung explants (E12.5), cultured for two days in the presence of Wnt3a at a concentration of 0 ng/ml (Panel A); 10 ng/ml (Panel B); 50 ng/ml (Panel C); 250 ng/ml (Panel D); 500 ng/ml (Panel E) and 1000 ng/ml (Panel F).
The primary antibodies used for the immunohistochemical detection was for beta-catenin; anti beta-catenin IgG, mAb, clone 14 from BD-Transduction Laboratories, for tubulin-beta mAb clone TBN05 (Tub2.1) from Neomarkers, for BrdU; anti-Bromodeoxyuridine (BrdU), mAb clone ZBU30 from Zymed Laboratories Inc.
In order to determine whether Wnt3A actually elevates the Wnt-signaling pathway in these explants, histological sections were stained for beta-catenin, the intracellular factor, which, together with members of the high mobility group (HMG) of transcription factors such as TCF1 and LEF, transducer the Wnt signal to the nucleus.

[2] = tested on: mesenchyme and epithelium of fetal lung explants; assay: TUNEL assay on sections of fetal lung explants; assay type: cell-based, mouse
Protocol: The induction of apoptosis was detected using the “In Situ Cell Death Detection Kit,” of Roche (Cat. No. 11 684 817 001) according to the manufacturer's instructions.
To further analyze the effect of Wnt3a upon apoptosis and proliferation, lung explants were cultured for four days in the presence of 0, 4, 20, 100, 250, 500, 750 and 1000 ng/ml. In order to identify whether after Wnt3A treatment cells are viable and active, proliferating BrdU was added to the culture medium, which is incorporated in newly synthesized DNA of active proliferating cells, two hours before the fixation of the lung explants. […] To better investigate this effect, histological sections were analyzed with the TUNEL assay, which detects fragmented DNA present in apoptotic cells (material and methods).

[3] = tested on: Wnt-signaling pathway in human epithelial lung adenocarcinoma cell line Calu-3; assay: TopFlash/FopFlash reporter assay, Calu-3; assay type: cell-based; settings: calu-3, 20 hours
Protocol: Primary mouse fibroblasts isolated from E12.5 lung explants, the human epithelial lung carcinoma cell line A549 cells (ATCC CCL-185), the human epithelial lung adenocarcinoma cell line Calu-3 (ATCC_HTB-55) and the normal human fetal lung fibroblast cell line HFL-1 cells (ATCC—153) were cultured in 96-well plates and transfected with the TopFlash and FopFlash reporter constructs using lipofectamine 2000 according to the manufacturer's instructions. As an internal control for transfection efficiency, a constitutive renilla luciferase reporter (Promega) was cotransfected. The cells were transfected with the above-mentioned reporter constructs and simultaneously treated with different concentrations of Wnt3A for 20 hours, after which the cells were lysed and luciferase expression was measured using a Berthold luminometer for two seconds (V. Korinek et al., Mol. Cell. Biol. 18:1248-1256, 1998). […]
In order to analyze if Wnt3A is able to activate the Wnt signal-transduction pathway in humans, we stimulated three different cell lines from human origin with Wnt3A and measured the response with the TopFlash/FopFlash reporter assay. The three human lung-derived cell lines analyzed were the lung epithelial carcinoma cell line A549 (FIG. 9B), the normal lung fibroblast line HFL-1 (FIG. 9C), and the epithelial adenocarcinoma cell line calu-3 (FIG. 9D).

[4] = tested on: fetal lung explants (E12.5); assay: Expression profiling of lung explants, Affymetrix MOE430AB microarray; assay type: cell-based, mouse
Protocol: To further investigate the effect of Wnt3A inhibition on lung differentiation, we analyzed the expression profiles of Wnt3A-treated lung explants with microarray analysis using the Affymetrix chip set MOE430AB, containing the complete mouse transcriptome. The lung explants, per condition, ten complete fetal lungs isolated from E12.5 embryos, were treated for four hours with 0 and 250 ng/ml Wnt3A (Wnt0/4 hr and Wnt250/4 hr, respectively), and for 24 hours with 0, 10, 50 and 250 ng/ml Wnt3A ([…], […], Wnt50/24 hr, Wnt250/24 hr, respectively). The 60 lung explants were isolated together from six pregnant Swiss mice and randomly distributed over the six different conditions.
After the indicated time period, total RNA was isolated, which was processed for the synthesis of a probe for hybridization onto the MOE-430AB chip sets. […] A rapid response was observed when the lungs were treated for four hours with 250 ng/ml Wnt3A.

[5] = 250 ng/ml, four hours, versus 0 ng/ml four hours
[6] = 24 hours, "the ng/ml wnt3a-treated group"

## Wnt3a
[1]; 750 ng/ml, two days
  apoptosis in the epithelium: no sign of apoptosis whatsoever
  apoptosis in the mesenchyme: clearly detectable but not yet abundant
[1]; 1000 ng/ml, five days
  apoptosis in the epithelium: contained no apoptotic cells
  apoptosis in the mesenchyme: most of the mesenchymal cells surrounding the epithelium displayed picnotic nuclei; also recorded: massive induction of apoptosis in the mesenchyme
[1]; 1000 ng/ml, two days
  apoptosis in the epithelium: not detectable
[1]; between 100 and 500 ng/ml, four days
  apoptosis in the epithelium: no sign of apoptosis could be detected
[1]; conclusion
  concentration at which apoptosis in the epithelium is induced: higher than 1000 ng/ml
  concentration at which apoptosis in the mesenchyme is induced: greater than 100 ng/ml
beta-catenin; 10-1000 ng/ml, within the first two days, mesenchymal cells around lung buds
  nuclear beta-catenin: dosage-dependent increase in nuclear beta-catenin
beta-catenin; 250 and 500 ng/ml, two days
  nuclear beta-catenin: maximal; also recorded: strong induction of nuclear beta-catenin
beta-catenin; four- and eight-day cultures
  nuclear beta-catenin: had disappeared
[2]; 1000 ng/ml, four days
  TUNEL-positive epithelial cells: almost none of the epithelial cells were TUNEL positive
  apoptosis in the mesenchyme (TUNEL): massive induction of apoptosis in the mesenchyme
  mesenchymal cells picnotic and TUNEL positive: ~100%
[2]; 1000 ng/ml, four days, listed as Wnt3A
  TUNEL-positive epithelial cells: unaffected epithelium
[2]; four days of culture
  concentration at which TUNEL-positive (apoptotic) cells increase: above 100 ng/ml
[3]
  TopFlash/FopFlash reporter response: respond to Wnt3A in a dosage-dependent manner; also recorded: strong induction of the Wnt-signaling pathway
[4]; 10 ng/ml, 24 hours
  changes in gene expression: capable of inducing significant changes in gene expression
[4]; 50 ng/ml, 24 hours
  down-regulated genes: 92 genes
  up-regulated genes: 95 genes
[4]; 250 ng/ml four hours versus 24-hour groups
  genes whose four-hour profile is opposite from the 24-hour Wnt3A-treated profiles: circa 75%
[4]; 250 ng/ml, 24 hours
  down-regulated genes, more than two-fold: 152 genes
  up-regulated genes, more than two-fold: 195 genes
[4]; [5]
  down-regulated genes, more than two-fold: 1165 genes
  up-regulated genes, more than two-fold: 446 genes
[4]; 10, 50 and 250 ng/ml, 24 hours
  cluster analysis of expression profiles of 4500 genes: effect on differentiation: inhibits, at least partially, the differentiation of fetal lung tissue; also recorded: inhibits lung differentiation and development
[4]; [6]
  down-regulated genes, more than two-fold: 223 genes
  up-regulated genes, more than two-fold: 209 genes
